Data as given in patent US4746672A, “Oxides of 1,2,5-thiadiazoles, their use in pharmaceutical compositions” (ICI Americas Inc., priority 1982, dated 1988).
Where a name gives a salt, the structure may show the parent alone.

Biological target: T1, histamine H-2 receptor (Oryctolagus cuniculus, UniProt G1TWL8)
T1 construct: The mixture of glands and cells is collected by centrifugation; from tissue; host or cells: dispersed gastric glands and cells (parietal cells) from gastric mucosa of New Zealand white rabbit
Assay: aminopyrine test: inhibition of histamine-induced uptake of aminopyrine into the acid space of parietal cells
Type: cell-based, New Zealand white rabbit
Details: rabbit gastric mucosa glands/cells; uptake stimulated by histamine 10^-5 M and ICI 63197 5×10^-7 M; read-out: concentration giving 50% inhibition of uptake of aminopyrine
Protocol: The aminopyrine test is carried out as follows:
Gastric mucosa from the New Zealand white rabbit is removed from the underlying muscle and washed in Buffer 1 which contains per liter: NaCl (8.007 g.), KCl (0.201 g.), Na2 HPO4 (0.113 g.), KH2 PO4 (0.204 g.), CaCl2.2H2 O (0.132 g.) MgCl2 (0.101 g.) and glucose (1 g.), adjusted to pH 7.4 with NaOH. The tissue is finely chopped, suspended in Buffer 1 and washed three times with Buffer 1. The tissue is then suspended in a dispersion medium of collagenase (Sigma Chemical Co., Type V; 100 mg.) and bovine serum albumin (Miles Laboratories Ltd., Fraction V; 100 mg.) in Buffer 1 (100 ml.) at 50 ml. per 10 g. net weight of tissue and incubated at 30° C. and pH 7.4 maintained by continuous monitoring, with stirring under an oxygen atmosphere. After 30 minutes the tissue is allowed to settle and the supernatant liquid is removed. Fresh dispersion medium (50 ml. per 10 g. wet weight of tissue) is added and incubation is continued with the tissue being largely dispersed into glands and whole cells after 40-60 minutes. Any remaining large pieces of tissue are removed by filtration through nylon mesh. […] The C^14 aminopyrine retained by the tissue is measured on a scintillation counter and the degree of inhibition of uptake by the test compound is calculated by reference to a control sample. […]

T1 sequence (G1TWL8 1-367): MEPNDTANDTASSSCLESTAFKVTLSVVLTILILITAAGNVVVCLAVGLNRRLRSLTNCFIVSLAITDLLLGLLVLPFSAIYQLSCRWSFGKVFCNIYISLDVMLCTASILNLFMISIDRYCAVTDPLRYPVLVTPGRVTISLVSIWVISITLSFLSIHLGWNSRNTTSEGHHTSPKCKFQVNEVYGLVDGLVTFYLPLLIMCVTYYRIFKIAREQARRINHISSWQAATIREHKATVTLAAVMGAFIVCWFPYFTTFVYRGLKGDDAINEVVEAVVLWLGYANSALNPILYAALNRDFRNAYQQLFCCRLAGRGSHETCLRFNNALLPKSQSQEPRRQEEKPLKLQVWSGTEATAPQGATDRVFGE

NC(=NCC(F)(F)F)Nc1nc(CSCCNc2n[s+]([O-])nc2N)cs1 (stereo not shown) [Example 1, 3-amino-4-[2-(2-[2,2,2-trifluoroethyl]guanidino)thiazol-4-ylmethylthio]ethylamino-1,2,5-thiadiazole 1-oxide maleate]
IC50: < 3 µM
